Measurements as given in article PMC7503225, “Repositioning Dequalinium as Potent Muscarinic Allosteric Ligand by Combining Virtual Screening Campaigns and Experimental Binding Assays” (International Journal of Molecular Sciences, 2020).

Assays:
[1] = target: T1, [3H]-NMS-occupied muscarinic hM1 subtype (Homo sapiens, UniProt P11229); assay: biochemical
T1 sequence (P11229 1-460): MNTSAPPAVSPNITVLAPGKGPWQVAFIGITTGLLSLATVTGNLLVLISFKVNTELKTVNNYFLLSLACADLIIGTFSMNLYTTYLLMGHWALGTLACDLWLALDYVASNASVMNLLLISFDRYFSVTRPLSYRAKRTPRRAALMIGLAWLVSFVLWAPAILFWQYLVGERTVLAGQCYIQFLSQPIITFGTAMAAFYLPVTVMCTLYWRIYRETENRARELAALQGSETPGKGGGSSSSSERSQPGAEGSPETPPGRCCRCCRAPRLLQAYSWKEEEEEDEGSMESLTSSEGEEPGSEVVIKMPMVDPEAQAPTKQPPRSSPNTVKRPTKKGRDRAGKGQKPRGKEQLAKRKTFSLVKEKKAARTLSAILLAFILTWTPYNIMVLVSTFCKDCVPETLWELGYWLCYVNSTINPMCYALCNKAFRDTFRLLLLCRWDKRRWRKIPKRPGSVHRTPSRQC
Protocol: (§1) All tested compounds were purchased from Merck KGaA (Darmstadt, Germany). The radioligand binding experiments were performed with membranes from Chinese Hamster Ovary (CHO) cells stably transfected with the five cloned human muscarinic receptor subtypes (hM1-5). Membrane fractions were prepared according to the protocol, which have been previously described; membranes were stored at −80 °C until use. Nonspecific binding was defined by the radioactivity bound in the presence of 10 µM atropine.
(§2) Off-rate assays were performed as described elsewhere to estimate the affinity of the ligands for the [^3H]-NMS-occupied receptor (log Kocc). Briefly, a high concentration of membranes (about 0.1 mg/mL) was incubated with a high concentration of [^3H]-NMS (2 nM) for 60 min at room temperature (mix membrane). Next, 100 µL aliquots were distributed into polypropylene tubes that were empty or in a final volume of 1 mL binding buffer with 1 µM atropine alone and in the presence of a range of concentrations of tested compound (1 nM–0.1 mM).
(§3) The effect on the radioligand dissociation of each tested ligand was determined at 0 min and at one time point, which was chosen to be ca 2.5 dissociation half-lives of [^3H]-NMS alone from each subtype receptors. Later (80 min for hM1, 20 min for hM2 and 70 min for hM5), the samples were filtered and counted as previously reported. Non specific binding was measured as previously reported.
(§4) All the results are expressed as means ± SEM obtained from 3-4 independent experiments each one performed in duplicate.

[2] = target: T2, [3H]-NMS-occupied muscarinic hM2 subtype (Homo sapiens, UniProt P08172); assay: One point kinetic (off-rate) assay of [3H]-NMS dissociation; format: binding
T2 construct: expressed in transfected cells; host or cells: CHO cells, stably transfected; membrane fractions
T2 sequence (P08172 1-466): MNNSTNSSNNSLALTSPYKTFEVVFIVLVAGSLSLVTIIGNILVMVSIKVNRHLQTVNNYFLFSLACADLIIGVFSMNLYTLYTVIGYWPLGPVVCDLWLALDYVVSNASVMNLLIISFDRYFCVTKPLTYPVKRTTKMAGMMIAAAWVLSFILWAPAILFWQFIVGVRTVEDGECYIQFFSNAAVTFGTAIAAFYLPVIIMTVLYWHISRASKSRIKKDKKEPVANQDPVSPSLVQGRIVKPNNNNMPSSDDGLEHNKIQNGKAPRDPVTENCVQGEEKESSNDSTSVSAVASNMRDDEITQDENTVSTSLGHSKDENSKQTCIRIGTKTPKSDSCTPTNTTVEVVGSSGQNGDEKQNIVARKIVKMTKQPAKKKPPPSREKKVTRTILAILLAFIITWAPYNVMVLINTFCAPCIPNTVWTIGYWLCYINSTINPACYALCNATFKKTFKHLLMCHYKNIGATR
Protocol: as §1, §2, §3, §4

[3] = target: five human muscarinic receptors subtypes (hM1–hM5); assay: Equilibrium binding, summary statements over the five subtypes
Protocol: as §1
(§5) Aliquots of membranes (25–70 µg/mL) were added and incubated for 2 h at room temperature, filtered through UniFilter GF/B plates (PerkinElmer Life and Analytical Science, Monza, Italy) using a FilterMate cell harvester (PerkinElmer Life and Analytical Science, Monza, Italy). The filters were washed several times with ice-cold MilliQ water. Then, the plates were counted in a β-counter (TopCount NXT microplate scintillation counter, PerkinElmer Life and Analytical Science, Monza, Italy).
(§6) Data points from radioligand inhibition binding curve were fitted to models using nonlinear regression equation to determine inhibitor potency (IC50) estimates, which were then converted to Ki values as appropriate.
as §4

[4] = target: T3, hM2 muscarinic receptor (Homo sapiens, UniProt P08172); assay: Equilibrium inhibition binding with [3H]-NMS, CHO cell membranes; conditions: [3H]-NMS 0.2 nM, mean ± SEM of 3-4 experiments, read-out: pKi hM2 (converted)
T3 construct: expressed in transfected cells; host or cells: CHO cells, stably transfected; membrane fractions
T3 sequence (P08172 1-466): T2 sequence (P08172 1-466)
Protocol: as §1, §5, §6, §4

[5] = target: T4, hM3 muscarinic receptor (Homo sapiens, UniProt P20309); assay: as above; conditions: [3H]-NMS 0.2 nM, mean ± SEM of 3-4 experiments, read-out: pKi hM3 (converted)
T4 construct: expressed in transfected cells; host or cells: CHO cells, stably transfected; membrane fractions
Protocol: as §1, §5, §6, §4

[6] = target: T5, hM5 muscarinic receptor (Homo sapiens, UniProt P08912); assay: as above; conditions: [3H]-NMS 0.2 nM, CHO membranes, mean ± SEM of 3-4 experiments; read-out: pKi hM5 (converted)
T5 construct: expressed in transfected cells; host or cells: CHO cells, stably transfected; membrane fractions
T5 sequence (P08912 1-532): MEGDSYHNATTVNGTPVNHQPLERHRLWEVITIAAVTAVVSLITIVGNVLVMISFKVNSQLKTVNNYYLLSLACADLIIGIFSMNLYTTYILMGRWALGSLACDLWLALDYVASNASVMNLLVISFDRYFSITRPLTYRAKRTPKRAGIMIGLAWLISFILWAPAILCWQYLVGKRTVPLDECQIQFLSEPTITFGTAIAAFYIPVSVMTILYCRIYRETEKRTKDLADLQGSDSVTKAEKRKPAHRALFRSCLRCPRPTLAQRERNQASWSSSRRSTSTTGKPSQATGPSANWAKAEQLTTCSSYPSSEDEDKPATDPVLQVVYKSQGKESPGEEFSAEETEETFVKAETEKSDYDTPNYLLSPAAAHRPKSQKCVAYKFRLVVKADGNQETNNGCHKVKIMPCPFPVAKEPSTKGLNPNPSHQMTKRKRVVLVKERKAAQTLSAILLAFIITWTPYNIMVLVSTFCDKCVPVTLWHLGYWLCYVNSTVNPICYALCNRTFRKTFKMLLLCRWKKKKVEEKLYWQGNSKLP
Protocol: as §1, §5, §6, §4

[7] = target: T6, hM1 muscarinic receptor (Homo sapiens, UniProt P11229); assay: as above; conditions: [3H]-NMS 0.2 nM, mean ± SEM of 3-4 experiments, read-out: pKi hM1 (converted)
T6 construct: expressed in transfected cells; host or cells: CHO cells, stably transfected; membrane fractions
T6 sequence (P11229 1-460): T1 sequence (P11229 1-460)
Protocol: as §1, §5, §6, §4

T4 sequence (P20309 whole entry): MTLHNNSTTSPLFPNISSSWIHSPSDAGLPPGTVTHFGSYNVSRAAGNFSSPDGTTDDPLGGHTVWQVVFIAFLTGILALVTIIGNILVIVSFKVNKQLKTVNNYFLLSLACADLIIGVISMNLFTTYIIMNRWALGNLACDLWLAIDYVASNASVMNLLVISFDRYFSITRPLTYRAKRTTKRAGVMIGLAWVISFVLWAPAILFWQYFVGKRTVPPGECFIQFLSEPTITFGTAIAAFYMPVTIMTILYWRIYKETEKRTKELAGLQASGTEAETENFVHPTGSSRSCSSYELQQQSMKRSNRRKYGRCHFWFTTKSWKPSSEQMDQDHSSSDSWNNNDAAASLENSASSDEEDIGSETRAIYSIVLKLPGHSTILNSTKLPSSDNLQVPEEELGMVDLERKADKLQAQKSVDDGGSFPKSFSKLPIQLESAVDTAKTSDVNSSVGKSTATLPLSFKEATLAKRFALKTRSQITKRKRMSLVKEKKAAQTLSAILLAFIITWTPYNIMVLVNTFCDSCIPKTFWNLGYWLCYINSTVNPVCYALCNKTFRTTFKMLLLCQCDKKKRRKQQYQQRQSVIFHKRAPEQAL

Cc1cc(N)c2ccccc2[n+]1CCCCCCCCCC[n+]1c(C)cc(N)c2ccccc21 [dequalinium]
Kd [1]: 204 nM | selectivity ratio hM2/hM1 ([2]; from log Kocc values): 10.7 | selectivity ratio hM2/hM5 ([2]; from log Kocc values): 174 | Kd ([2]; read-out: Log Kocc hM2 (converted)): 19.1 nM | pKi values (muscarinic subtypes overall) [3]: greater than 7.0 | Ki [4]: 661 nM | Ki [5]: 170 nM | Ki [6]: 158 nM | Ki [7]: 41.7 nM
